PubChem BioAssay (NCI)
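Method: 48-hour compound exposure of cells in 96-well plates, five concentrations, linear interpolation of endpoints. Here, GI50 denotes the concentration required for 50% inhibition of growth. The concentration for full growth arrest is given as TGI.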

Experiments:
Test in all cases: inhibition of tumour cell growth, NCI panel, 48 h
[1] = tested on: HCT-116 colon
[2] = tested on: SK-MEL-5 melanoma
[3] = tested on: NCI-H522 lung
[4] = tested on: MOLT-4 leukemia
[5] = tested on: RXF 393 renal
[6] = tested on: SK-OV-3 ovarian
[7] = tested on: SNB-75 CNS
[8] = tested on: A498 renal
[9] = tested on: SF-295 CNS
[10] = tested on: HT29 colon
[11] = tested on: SN12C renal
[12] = tested on: LOX IMVI melanoma
[13] = tested on: SK-MEL-2 melanoma
[14] = tested on: T-47D breast
[15] = tested on: HOP-62 NSCLC
[16] = tested on: U251 CNS
[17] = tested on: SK-MEL-28 melanoma
[18] = tested on: MCF7 breast
[19] = tested on: CCRF-CEM leukemia
[20] = tested on: IGROV1 ovarian
[21] = tested on: HL-60(TB) leukemia
[22] = tested on: RPMI-8226 leukemia
[23] = tested on: MDA-MB-435
[24] = tested on: HCT-15 colon
[25] = tested on: KM12 colon
[26] = tested on: K-562 leukemia
[27] = tested on: HOP-92 NSCLC
[28] = tested on: OVCAR-3 ovarian
[29] = tested on: SF-268 CNS
[30] = tested on: A549 NSCLC
[31] = tested on: HS 578T breast
[32] = tested on: EKVX NSCLC
[33] = tested on: NCI-H460 lung
[34] = tested on: SNB-19 CNS
[35] = tested on: UACC-257 melanoma
[36] = tested on: ACHN renal
[37] = tested on: UO-31 renal
[38] = tested on: MDA-MB-231 breast
[39] = tested on: NCI-H226 lung
[40] = tested on: TK-10 renal
[41] = tested on: SR leukemia
[42] = tested on: MALME-3M melanoma
[43] = tested on: 786-0 renal
[44] = tested on: OVCAR-5 ovarian
[45] = tested on: UACC-62 melanoma
[46] = tested on: NCI/ADR-RES ovarian
[47] = tested on: COLO 205 colon
[48] = tested on: HCC-2998 colon
[49] = tested on: OVCAR-4 ovarian
[50] = tested on: SW-620 colon
[51] = tested on: PC-3 prostate
[52] = tested on: OVCAR-8 ovarian
[53] = tested on: SF-539 CNS
[54] = tested on: NCI-H23 lung
[55] = tested on: M14 melanoma
[56] = tested on: BT-549 breast
[57] = tested on: DU-145 prostate
[58] = tested on: CAKI-1 renal

Compound: CCC(=C/[C@H](C)C/C=C/C(C)=C/[C@@H](C)C(=O)[C@@H](C)[C@H](O)[C@@H](C)CC)/C=C/[C@H]1OC(=O)C=C[C@H]1C
- GI50 [1]: < 10 nM
- TGI [1]: 10.2 nM
- GI50 [2]: < 10 nM
- TGI [2]: 43.7 nM
- GI50 [3]: < 10 nM
- TGI [3]: < 10 nM
- GI50 [4]: < 10 nM
- GI50 [5]: < 10 nM
- TGI [5]: < 10 nM
- GI50 [6]: < 22.1 nM
- TGI [6]: 3.44 µM
- GI50 [7]: < 10 nM
- TGI [7]: 85.4 nM
- GI50 [8]: < 10 nM
- TGI [8]: < 24 nM
- GI50 [9]: < 10 nM
- TGI [9]: 1360 nM
- GI50 [10]: < 10 nM
- TGI [10]: 1200 nM
- GI50 [11]: < 10 nM
- TGI [11]: 1360 nM
- GI50 [12]: < 10 nM
- TGI [12]: 1110 nM
- GI50 [13]: < 10 nM
- TGI [13]: < 10 nM
- GI50 [14]: < 10 nM
- TGI [14]: 880 nM
- GI50 [15]: < 10 nM
- TGI [15]: 1130 nM
- GI50 [16]: < 10 nM
- TGI [16]: 1350 nM
- GI50 [17]: < 10 nM
- TGI [17]: 1110 nM
- GI50 [18]: < 10 nM
- TGI [18]: 1180 nM
- GI50 [19]: < 10 nM
- TGI [19]: 9.07 µM
- GI50 [20]: < 10 nM
- TGI [20]: 1270 nM
- GI50 [21]: < 10 nM
- TGI [21]: < 40 nM
- GI50 [22]: < 10 nM
- TGI [22]: 42.1 nM
- GI50 [23]: < 10 nM
- TGI [23]: 25.6 nM
- GI50 [24]: < 10 nM
- TGI [24]: 1170 nM
- GI50 [25]: < 10 nM
- TGI [25]: 113 nM
- GI50 [26]: < 10 nM
- TGI [26]: < 10 nM
- GI50 [27]: < 10 nM
- TGI [27]: 722 nM
- GI50 [28]: < 10 nM
- GI50 [29]: < 10 nM
- TGI [29]: 1460 nM
- GI50 [30]: < 10 nM
- TGI [30]: 1930 nM
- GI50 [31]: < 10 nM
- TGI [31]: 438 nM
- GI50 [32]: 288 nM
- TGI [32]: 11.6 µM
- GI50 [33]: < 10 nM
- TGI [33]: 1100 nM
- GI50 [34]: < 10 nM
- TGI [34]: 1290 nM
- GI50 [35]: < 10 nM
- TGI [35]: 1550 nM
- GI50 [36]: < 10 nM
- TGI [36]: 1370 nM
- GI50 [37]: < 10 nM
- TGI [37]: 1150 nM
- GI50 [38]: < 10 nM
- TGI [38]: 1500 nM
- GI50 [39]: < 10 nM
- TGI [39]: 598 nM
- GI50 [40]: < 10 nM
- TGI [40]: 1520 nM
- GI50 [41]: < 10 nM
- GI50 [42]: < 10 nM
- GI50 [43]: < 10 nM
- TGI [43]: 642 nM
- GI50 [44]: < 10 nM
- TGI [44]: 1350 nM
- GI50 [45]: < 10 nM
- TGI [45]: 75.5 nM
- GI50 [46]: < 10 nM
- TGI [46]: 1390 nM
- GI50 [47]: < 10 nM
- TGI [47]: 68.4 nM
- GI50 [48]: < 10 nM
- TGI [48]: < 10 nM
- GI50 [49]: < 10 nM
- TGI [49]: 1290 nM
- GI50 [50]: < 10 nM
- TGI [50]: 1900 nM
- GI50 [51]: < 10 nM
- TGI [51]: 1570 nM
- GI50 [52]: < 10 nM
- TGI [52]: 1270 nM
- GI50 [53]: < 10 nM
- TGI [53]: 439 nM
- GI50 [54]: < 10 nM
- TGI [54]: 1500 nM
- GI50 [55]: < 10 nM
- TGI [55]: 132 nM
- GI50 [56]: < 10 nM
- GI50 [57]: < 10 nM
- TGI [57]: 2690 nM
- GI50 [58]: < 10 nM
- TGI [58]: 1800 nM
